The values below come from US10111848B2 (National Institute of Health and Medical Research, priority 2012, dated 2018).

This experiment deals with Subjects exhibiting GLUT1 deficiency. Briefly: Treatment of subjects exhibiting GLUT1 deficiency with triheptanoin (Example 1). The class given is in vivo. To be noted: triheptanoin with each meal, about 30-35% of caloric intake, with or without other anti-epileptic drugs. The source says: The subjects' seizure frequency is reduced and their neurologic and movement disorder is improved due to the restoration of brain energy metabolism and net biosynthesis.

On to `CCCCCCC(=O)OCC(COC(=O)CCCCCC)OC(=O)CCCCCC` [triheptanoin, glyceryl triheptanoate], for which the “neurologic and movement disorder” value was “improved”; the seizure frequency result was “reduced”.
